The results in this text go back to patent US8796328B2, “TRPV1 antagonists” (AbbVie Inc., priority 2012, dated 2014).

Test [1] has as its target T1, human TRPV1 receptor (hTRPV1) (Homo sapiens (Human), UniProt Q8NER1). Put plainly: Acid activation assay (pH 5.0, FLIPR intracellular Ca2+). Type of test: cell-based. Particulars: Table 2; 37.5 μM compound; percentage of maximal pH 5.0-induced response.
For the next test, the system named is rats. In words: Rat tail immersion assay (noxious thermosensation, 55° C. water bath). Type of test: in vivo. Particulars: rat, relative to vehicle. The protocol: Compounds were tested for their effects on noxious thermosensation using the tail immersion assay. Testing was performed one hour following oral administration of 100 μmol/kg of the compound in 10% ethanol/20% Tween-80/70% PEG-400 (2 mL/kg). Mophine (6 mg/kg) was administered interperitoneally (i.p.) using saline (2 mL/kg) as the vehicle. For testing, a circulating water bath was heated to 55° C. Thirty to sixty minutes post dosing, the rats were handled for a few seconds to calm them down and then cupped with their back against the testers hand at a slight angle with head facing away from tester. With rat in one hand and a 0.01 second stopwatch in the other hand, the tail was quickly immersed 6-8 cm in water bath or to a distance leaving 2-3 cm of tail out of water. The timer was started simultaneously. When the rat flinched or attempted withdrawal, timer was immediately stopped and the rat's tail was quickly removed from water bath. This response latency (in seconds) was recorded. Process was repeated 3 times with 3-4 minutes between readings for a final average.
For a given example, a percent increase in the average response latency (in seconds) for tail withdrawal relative to a vehicle control was determined % increase=[(tc−tv)/tv]×100%
tc=response time (in seconds) with oral dosing of compounds
tv=response time (in seconds) with oral dosing of vehicle
The % increases in tail withdrawal latency relative to vehicle control are divided into the following categories: […]

Test [2] deals with T1, human TRPV1 receptor (hTRPV1). Put plainly: Capsaicin activation assay (FLIPR intracellular Ca2+). Type of test: cell-based. As to conditions: Table 2; capsaicin-induced intracellular Ca2+ increase; read-out: human TRPV1 capsaicin IC50. Summed up: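 Recombinant HEK293 cells stably expressing hTRPV1, Calcium-4 dye loaded 90–120 min at room temperature, were preincubated with compound (12-point, one-third-log) for 3 min before capsaicin challenge. Peak FLIPR fluorescence minus baseline was normalised to capsaicin control response; IC50 from four-parameter logistic fit.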

The mark [3] stands for this setting: oral 100 μmol/kg, one hour post dosing.

T1 sequence (Q8NER1 whole entry): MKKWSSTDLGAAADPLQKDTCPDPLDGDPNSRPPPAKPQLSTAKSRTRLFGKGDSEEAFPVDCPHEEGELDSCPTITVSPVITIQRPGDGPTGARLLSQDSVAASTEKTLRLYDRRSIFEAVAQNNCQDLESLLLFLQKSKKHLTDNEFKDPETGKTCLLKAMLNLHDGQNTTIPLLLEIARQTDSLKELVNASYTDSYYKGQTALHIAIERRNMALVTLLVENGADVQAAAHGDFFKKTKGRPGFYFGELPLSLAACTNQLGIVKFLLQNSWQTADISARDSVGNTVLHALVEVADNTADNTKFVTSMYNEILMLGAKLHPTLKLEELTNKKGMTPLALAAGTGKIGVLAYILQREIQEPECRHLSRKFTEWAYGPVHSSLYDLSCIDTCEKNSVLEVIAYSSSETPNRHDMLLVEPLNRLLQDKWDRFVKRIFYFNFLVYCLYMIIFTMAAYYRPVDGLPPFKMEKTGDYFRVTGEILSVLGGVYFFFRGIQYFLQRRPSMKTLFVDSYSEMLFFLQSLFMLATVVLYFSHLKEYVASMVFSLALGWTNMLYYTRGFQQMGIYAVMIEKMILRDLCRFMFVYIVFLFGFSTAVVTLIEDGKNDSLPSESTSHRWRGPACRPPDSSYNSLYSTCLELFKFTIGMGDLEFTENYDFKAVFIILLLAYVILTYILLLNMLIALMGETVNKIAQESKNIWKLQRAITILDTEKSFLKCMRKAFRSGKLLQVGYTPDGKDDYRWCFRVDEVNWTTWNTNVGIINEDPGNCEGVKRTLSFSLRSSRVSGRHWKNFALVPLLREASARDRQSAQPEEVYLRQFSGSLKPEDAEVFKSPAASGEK

In the case of `CC(=O)Nc1nc2c(Oc3cc(-c4ccc(C(F)(F)F)cc4)ncn3)cccc2s1` [A, reference compound], the “human TRPV1 H+ (max % remain)” value in test [1] is listed as 10%. Moreover, in the test on rats (setting [3]), the “% Increase in Tail Withdrawal Latency” value is reported as “+++ (greater than or equal to 25% increase)”.
In the same order, the values of `CC(C)(C)c1ccc(Nc2ncnc3cc(-c4ncccc4C(F)(F)F)ccc23)cc1` [B, reference compound] are 1% and “+++ (greater than or equal to 25% increase)”.
As usually defined, the IC50 is the concentration at which inhibition is half-maximal. On to `CC(C)(C)c1ccc2c(c1)CC[C@H]2NC(=O)Nc1cccc2[nH]cnc12` [C, reference compound], for which the “human TRPV1 H+ (max % remain)” value in test [1] is 1%. The “% Increase in Tail Withdrawal Latency” value with rats (setting [3]) is recorded as “+++ (greater than or equal to 25% increase)”. Further, the IC50 in test [2] was determined as 35 nM.
Consider `Cc1nc(Nc2cccc3c2C[C@H](O)CC3)oc1-c1ccc(C(F)(F)F)cc1` [D, reference compound], for which, in test [1], the “human TRPV1 H+ (max % remain)” value amounted to 3%. Also, the “% Increase in Tail Withdrawal Latency” value in the test on rats (setting [3]) is recorded as “+++ (greater than or equal to 25% increase)”.
Take `Cc1cccnc1N1CC=C(C(=O)Nc2ccc(S(=O)(=O)C(F)(F)F)cc2)CC1` [E, reference compound]: in test [1], the “human TRPV1 H+ (max % remain)” value worked out at 2%. Further, in the test on rats (setting [3]), the “% Increase in Tail Withdrawal Latency” value is listed as “+++ (greater than or equal to 25% increase)”.
On to `CN1CC[C@]23c4c5ccc(O)c4O[C@H]2[C@@H](O)C=C[C@H]3[C@H]1C5` [Morphine], for which the “% Increase in Tail Withdrawal Latency” value in the test on rats (morphine 6 mg/kg i.p. in saline) is “+++ (greater than or equal to 25% increase)”.
